Measured values from ChEMBL document CHEMBL1123714, “Potential antitumor agents. 48. 3'-Dimethylamino derivatives of amsacrine: redox chemistry and in vivo solid tumor activity” (J Med Chem, 1987).

Assay: physchem
Conditions: 20% DMF

SMILES | pKa
CN(C)c1cc(NS(C)(=O)=O)ccc1Nc1c2ccccc2nc2ccccc12 | 7.25
CNc1cc(NS(C)(=O)=O)ccc1Nc1c2ccccc2nc2ccccc12 | 7.47
